# Results as given in US4396550A, “Dibenz [b,e] oxepin derivatives” (Kyowa Hakko Kogyo Co., Ltd., priority 1980, dated 1983).
# Tests used:
# [1] = Antiasthmatic activity; format: in vivo; settings: po; read-out: Antiasthmatic activity: MED
# [2] = system: blood platelets (platelet-rich plasma); test: Test for the inhibition of platelet aggregation (collagen-induced, platelet-rich plasma); format: cell-based, male white rabbits; settings: Oryctolagus cuniculus, Platelet, 0.05 h; depressing ratio of 50% of collagen-induced aggregation; compound 3 minutes before; read-out: Antiplatelet aggregation activity: MED
# Method in brief: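 Citrated carotid blood from male white rabbits (2–2.5 kg) spun at 1,000 rpm for 15 min to give PRP. Compound added 3 min before collagen, dosed to give 50% aggregation in the presence of 100 γ/ml aspirin; aggregation followed by aggregometer, activity scored as 50% depression versus collagen alone.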
# [3] = system: male dd-strain rats; test: Acute toxicity test (minimum lethal dose); format: in vivo; settings: mortality for 7 days
# Method: Groups of male dd-strain rats (each group consisting of five rats) weighing 20±1 g were used. The compounds of the present invention were administered orally (po: 0.3 mg/g) or intraperitoneally (ip: 0.1 mg/g). The MLD (minimum lethal dose) was calculated from the mortality for 7 days after the administration to obtain the results given in Table 1.
# [4] = system: isolated ileum of guinea-pig; test: Test for antihistaminergic effects on the isolated ileum of guinea-pig (histamine contraction, in vitro); design: species or system guinea-pig (male Hartly-strain); settings: Cavia porcellus, 0.05 h; depressing ratio of 80% or more of histamine contraction; read-out: Antihistaminergic activity: MED
# Method in brief: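 Ileum segments from male Hartley guinea-pigs (~250 g) suspended in Tyrode's solution at 32±1 °C, contractions recorded on kymograph. Test compound given 3 min before agonist challenge with 0.1 ml histamine at 5×10^-3 g/l.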
# [5] = system: isolated ileum of guinea-pig; test: Test for anticholinergic effects on the isolated ileum of guinea-pig (acetylcholine contraction, in vitro); design: species or system guinea-pig (male Hartly-strain); settings: Cavia porcellus, 0.05 h; depressing ratio of 80% or more of acetylcholine contraction; compound 3 minutes before; read-out: Anticholinergic activity: MED (minimum effective dose)
# Method in brief: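 Ileum segments from male Hartley guinea-pigs (~250 g), 2-3 cm, in Tyrode's at 32±1° C, aerated. Contraction evoked by acetylcholine (0.1 ml of 10^-3 g/ml), recorded by kymograph, before and 3 minutes after test compound addition.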
Compound,minimal effective dose [1] [mg/kg],minimal effective concentration [2] [µg/mL],Acute toxicity: MLD (minimum lethal dose) ([3]; ip) [mg/kg],Acute toxicity: MLD (minimum lethal dose) ([3]; po) [mg/kg],minimal effective concentration [4] [µg/mL],minimal effective concentration [5] [µg/mL]
"OCCN1CCN(C2c3ccccc3COc3ccc(F)cc32)CC1 (stereo not drawn) [Compound 39, 2-fluoro-11-{4-(2-hydroxyethyl)-1-piperazinyl}-6,11-dihydrodibenz[b,e]oxepin]",100,50,100,> 300,10,1
"CCC(C)c1ccc2c(c1)C(NC1CN3CCC1CC3)c1ccccc1CO2 (stereo not drawn) [Compound 51, 2-(1-methyl)propyl-11-(3-quinuclidinyl)amino-6,11-dihydrodibenz[b,e]oxepin]",50,50,100,> 300,0.3,1
"CC(C)(C)c1ccc2c(c1)C(NC1CN3CCC1CC3)c1ccccc1CO2 (stereo not drawn) [Compound 52, 2-(1,1-dimethyl)ethyl-11-(3-quinuclidinyl)amino-6,11-dihydrodibenz[b,e]oxepin]",50,1,100,> 300,0.3,3
"Cc1ccc2c(c1)C(NCCN1CCCC1)c1ccccc1CO2 (stereo not drawn) [Compound 58, 2-methyl-11-{2-(1-pyrrolidinyl)ethyl}amino-6,11-dihydrodibenz[b,e]oxepin]",25,50,> 100,300,0.1,3
"CCc1ccc2c(c1)C(N1CCN(C)CC1)c1ccccc1CO2 (stereo not drawn) [Compound 66, 2-ethyl-11-(4-methyl-1-piperazinyl)-6,11-dihydrodibenz[b,e]oxepin]",10,50,> 100,> 300,1,10
"Cc1ccc2c(c1)C(N1CCN(C)CC1)c1ccccc1CO2 (stereo not drawn) [Compound 67, 2-methyl-11-(4-methyl-1-piperazinyl)-6,11-dihydrodibenz[b,e]oxepin]",25,50,> 100,> 300,0.3,10
"COc1ccc2c(c1)C(N1CCN(C)CC1)c1ccccc1CO2 (stereo not drawn) [Compound 68, 2-methoxy-11-(4-methyl-1-piperazinyl)-6,11-dihydrodibenz[b,e]oxepin]",100,100,100,200,3,10
"CN1CCN(C2c3ccccc3COc3ccc(F)cc32)CC1 (stereo not drawn) [Compound 69, 2-fluoro-11-(4-methyl-1-piperazinyl)-6,11-dihydrodibenz[b,e]oxepin]",100,100,> 100,100,10,3
"CN1CCN(C2c3ccccc3COc3ccc(Cl)cc32)CC1 (stereo not drawn) [Compound 70, 2-chloro-11-(4-methyl-1-piperazinyl)-6,11-dihydrodibenz[b,e]oxepin]",10,50,100,200,0.3,1
